For this assay, the target named is PI3K (phosphatidylinositol 3-kinase). Put plainly: PI3K enzyme activity assay, dose response […]. The assay is classed as biochemical.

By IC50 is commonly meant the concentration that gives 50% inhibition. Low readings indicate inhibition by little substance, high ones a need for much substance. `O=C1OC(O)C(Cc2ccc(O)cc2)=C1c1ccc(O)c(O)c1` (racemic) [compound 12, 8-hydroxyhelvafuranone] came in with an IC50 of 9.8 µM.

With `O=C1OCC(Cc2ccc(O)c(O)c2)=C1c1ccc(O)c(O)c1` [compound 11, eutypoid F], the IC50 was determined as 1.7 µM.

Source of the values: PMC9864330, “Two New Alkaloids and a New Butenolide Derivative from the Beibu Gulf Sponge-Derived Fungus Penicillium sp. SCSIO 41413” (Marine Drugs, 2022).
